We go through seven compounds from PubChem BioAssay (NCI).

Test systems include COLO 205 colon; BT-549 breast; SK-MEL-28 melanoma; NCI/ADR-RES ovarian; SW-620 colon; HL-60(TB) leukemia; OVCAR-3 ovarian; SNB-75 CNS; OVCAR-8 ovarian; NCI-H522 lung.
Test in all cases: growth of human tumour cells (NCI), 48 h

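Exposure lasted 48 hours, with cells grown in 96-well plates and compounds tested at five concentrations. Here, GI50 denotes the concentration required for 50% inhibition of growth. Definition used: TGI = concentration required for complete inhibition of growth.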

As for `CC(=O)Nc1ccc(/C=C/C(=O)c2ccccc2)cc1`, the GI50 in the assay with COLO 205 colon is 14.8 µM; in the assay on BT-549 breast it was 20.1 µM; in the assay with SK-MEL-28 melanoma, 20.5 µM; in the assay with NCI/ADR-RES ovarian, 17.4 µM; with SW-620 colon, 4.32 µM; in the assay with HL-60(TB) leukemia, 24.8 µM. The GI50 was 7.41 µM in the assay with OVCAR-3 ovarian, 18.2 µM in the assay on SNB-75 CNS, 12.3 µM with OVCAR-8 ovarian and 6.85 µM in the assay with NCI-H522 lung. Also, the TGI with COLO 205 colon came out at 28 µM; in the assay with BT-549 breast, 41.2 µM; in the assay with SK-MEL-28 melanoma it was 44.2 µM; in the assay on NCI/ADR-RES ovarian it was 73.1 µM; in the assay with SW-620 colon it was 17.1 µM; in the assay with HL-60(TB) leukemia, 81.2 µM. Further, the TGI was 20.1 µM in the assay on OVCAR-3 ovarian, 42.2 µM in the assay on SNB-75 CNS, 30.4 µM in the assay on OVCAR-8 ovarian and 23.2 µM in the assay with NCI-H522 lung.
With `C/C=C/C/C=C/CCC(=O)[C@H]1O[C@H]1C(N)=O`, the GI50 is 15.3 µM in the assay on COLO 205 colon; 11.9 µM in the assay with SW-620 colon; 5.19 µM in the assay on HL-60(TB) leukemia; 13.9 µM in the assay on OVCAR-3 ovarian; 10 µM in the assay with SNB-75 CNS; 17.7 µM in the assay with OVCAR-8 ovarian. For the same compound, the TGI is 31.5 µM with COLO 205 colon; 25.3 µM in the assay on BT-549 breast; 28.3 µM in the assay on SK-MEL-28 melanoma; more than 100 µM in the assay on NCI/ADR-RES ovarian; 27.9 µM in the assay on SW-620 colon; 25.2 µM with HL-60(TB) leukemia. Also, the TGI was 27.4 µM in the assay on OVCAR-3 ovarian, 25 µM in the assay with SNB-75 CNS, more than 74.3 µM in the assay with OVCAR-8 ovarian and 25.6 µM in the assay on NCI-H522 lung.
In the case of `Nc1ccccc1-c1ccc([N+](=O)[O-])cc1`, the GI50 is 10.7 µM with COLO 205 colon; 4.54 µM with BT-549 breast; 83.5 µM with SK-MEL-28 melanoma; 26.2 µM with NCI/ADR-RES ovarian; 19.3 µM in the assay with SW-620 colon; 2.93 µM in the assay with HL-60(TB) leukemia. Also, the GI50 in the assay with OVCAR-3 ovarian was 13.4 µM; in the assay with SNB-75 CNS, more than 100 µM; with OVCAR-8 ovarian it was 63.4 µM; in the assay with NCI-H522 lung, 11.2 µM. Besides, the TGI was 27.2 µM in the assay on COLO 205 colon; 37.1 µM with BT-549 breast; more than 100 µM in the assay with SK-MEL-28 melanoma; more than 100 µM in the assay on NCI/ADR-RES ovarian; more than 100 µM in the assay on SW-620 colon; 26.1 µM with HL-60(TB) leukemia. Further, the TGI with OVCAR-3 ovarian was 76.9 µM; with SNB-75 CNS, more than 100 µM; in the assay on OVCAR-8 ovarian it was more than 100 µM; in the assay with NCI-H522 lung, more than 100 µM.
As to `Cc1ccc(NC(=O)Cc2ccc(/C=C/C(=O)c3ncc[nH]3)cc2)cc1`, the GI50 in the assay on COLO 205 colon was 7.27 µM; in the assay with BT-549 breast, 6.42 µM; in the assay with SK-MEL-28 melanoma it was 11.5 µM; in the assay on NCI/ADR-RES ovarian, 6.73 µM; in the assay with SW-620 colon, 5.22 µM; with HL-60(TB) leukemia, 5.88 µM. For the same compound, the GI50 in the assay with OVCAR-3 ovarian was 1.67 µM; with SNB-75 CNS, 7 µM; with OVCAR-8 ovarian, 7.24 µM; in the assay on NCI-H522 lung, 4.54 µM. For the same compound, the TGI with COLO 205 colon, in the assay on BT-549 breast, with SK-MEL-28 melanoma, with NCI/ADR-RES ovarian, with SW-620 colon and in the assay on HL-60(TB) leukemia was more than 25 µM throughout. For the same compound, the TGI in the assay with OVCAR-3 ovarian is more than 25 µM; in the assay on SNB-75 CNS it was more than 25 µM; in the assay with OVCAR-8 ovarian, more than 25 µM; in the assay with NCI-H522 lung, 20.5 µM.
With `N=C(N)c1ccc(OCCOCCOc2ccc(C(=N)N)cc2)cc1`, the GI50 is 50.1 µM in the assay on COLO 205 colon; 53.5 µM in the assay on BT-549 breast; 77 µM in the assay on SK-MEL-28 melanoma; more than 100 µM in the assay with NCI/ADR-RES ovarian; more than 100 µM with SW-620 colon; more than 100 µM with HL-60(TB) leukemia. The GI50 with OVCAR-3 ovarian was more than 100 µM; in the assay on SNB-75 CNS it was more than 100 µM; in the assay with OVCAR-8 ovarian, 31.4 µM; in the assay on NCI-H522 lung, 45.5 µM. Moreover, the TGI in the assay on COLO 205 colon, in the assay with BT-549 breast, with SK-MEL-28 melanoma, with NCI/ADR-RES ovarian, in the assay with SW-620 colon and with HL-60(TB) leukemia was more than 100 µM throughout. Moreover, the TGI in the assay on OVCAR-3 ovarian, with SNB-75 CNS, in the assay on OVCAR-8 ovarian and in the assay with NCI-H522 lung was more than 100 µM each time.
As to `O=S(=O)(Cc1ccc(Cl)cc1Cl)c1ccc(Cl)cc1`, the GI50 is 0.548 µM with COLO 205 colon; 1.54 µM with BT-549 breast; 1.97 µM with SK-MEL-28 melanoma; 0.478 µM in the assay with NCI/ADR-RES ovarian; 0.365 µM with SW-620 colon; 0.37 µM with HL-60(TB) leukemia. The GI50 with OVCAR-3 ovarian was 0.346 µM; in the assay with SNB-75 CNS, 0.732 µM; with OVCAR-8 ovarian, 1.22 µM; in the assay with NCI-H522 lung, 0.282 µM. The TGI was 5.52 µM in the assay with COLO 205 colon; more than 75.4 µM in the assay with BT-549 breast; more than 100 µM with SK-MEL-28 melanoma; 3.59 µM with NCI/ADR-RES ovarian; more than 100 µM in the assay with SW-620 colon; 17.7 µM with HL-60(TB) leukemia. In addition, the TGI in the assay with OVCAR-3 ovarian is 1.8 µM; in the assay on SNB-75 CNS, more than 27.5 µM; in the assay with OVCAR-8 ovarian, more than 100 µM; in the assay with NCI-H522 lung, 2.27 µM.
For the compound `Cn1ccnc1C(=O)/C=C/c1ccc(C(=O)Nc2ccc(S(F)(F)(F)(F)F)cc2)cc1`, the GI50 was 2 µM in the assay with COLO 205 colon; 2.62 µM in the assay with BT-549 breast; more than 14.3 µM in the assay with SK-MEL-28 melanoma; 1.52 µM with NCI/ADR-RES ovarian; 0.54 µM with SW-620 colon; 0.945 µM in the assay with HL-60(TB) leukemia. The GI50 in the assay on OVCAR-3 ovarian is 1.05 µM; with SNB-75 CNS, 0.761 µM; with OVCAR-8 ovarian it was 2.03 µM; in the assay on NCI-H522 lung, 4.69 µM. For the same compound, the TGI in the assay with COLO 205 colon was 12.3 µM; in the assay on BT-549 breast, more than 14.3 µM; in the assay with SK-MEL-28 melanoma, more than 14.3 µM; with NCI/ADR-RES ovarian it was more than 14.3 µM; in the assay on SW-620 colon it was 5.58 µM; in the assay with HL-60(TB) leukemia, 5.49 µM. Moreover, the TGI with OVCAR-3 ovarian is 7.26 µM; in the assay on SNB-75 CNS it was more than 14.3 µM; in the assay with OVCAR-8 ovarian, more than 14.3 µM; in the assay on NCI-H522 lung, more than 14.3 µM.
